Measured values from publication PMC12714728, “VHH antibody loop guides design of a synthetic macrocyclic peptide that potently blocks influenza virus membrane fusion” (npj Viruses, 2025).
Starred links: 1 amine or outer side, 2 acyl side, 3 side chain; linkers in the order of their positions; H or OH if unused. Positions of bridges follow the written chain, without caps; N, C: chain ends. Non-standard residues stand in square brackets, D forms with d. Residues, ends and D or L forms follow the SMILES beside them. ξ: configuration not given here. ξhhPhe = NC(CCCc1ccccc1)C(=O)O; Suc = O=C(CCC(=O)[*:2])[*:1]; dAbu = CC[C@@H](N)C(=O)O

Assays:
P-gp (MDR1) = assay: In vitro cell permeability / P-gp substrate assay; settings: pig; for Papp A→B at 120 min, 30 nM / Papp A→B at 120 min, 5 µM: LLC-MDR1, apical to basolateral; for Papp B→A at 120 min, 30 nM / Papp B→A at 120 min, 5 µM: LLC-MDR1, basolateral to apical
[1] = In vitro cell permeability assay; settings: for efflux ratio at 120 min, 30 nM / Papp B→A at 120 min, 30 nM / Papp B→A at 120 min, 5 µM: LLC-Parent; for Papp B→A at 120 min, 30 nM / Papp B→A at 120 min, 5 µM: basolateral to apical
[2] = test system: H1/Cal HA (A/California/07/2009 (H1N1)); type: binding, influenza A virus
[3] = test system: H1/NCa HA (A/New Caledonia/20/1999 (H1N1)); type: binding, influenza A virus
[4] = test system: H5/Viet HA (A/Vietnam/1203/2004 (H5N1)); type: binding, influenza A virus
[5] = test system: H1N1 A/Brisbane/59/2007 (H1/Bri) HA; type: biochemical, influenza A virus; settings: pH 5.25
[6] = biological target: group 1 H1/Cal, H1/NCa, and H5/Viet HAs; type: binding, influenza A virus; settings: read-out: KD by SPR (range over HAs)
[7] = test system: group 1 H1/Cal, H1/NCa, and H5/Viet HAs; type: binding, influenza A virus; settings: read-out: IC50 in AlphaLISA (range over HAs)
[8] = LLC-PK1, pH 7.4, Papp AB, no inhibitor
[9] = LLC-PK1, pH 7.4, Papp BA, no inhibitor
[10] = pig, LLC-PK1, pH 7.4, Papp BA, no inhibitor

Row | Structure (SMILES) | IC50 [2] [µM] | IC50 [3] [µM] | IC50 [4] [µM] | IC50 [5] [µM] | further results
1 | C[C@H]1O[C@@H](O[C@H]2[C@@H](O)C[C@H](O[C@H]3[C@@H](O)C[C@H](O[C@H]4CC[C@@]5(C)[C@H](CC[C@@H]6[C@@H]5C[C@@H](O)[C@]5(C)[C@@H](C7=CC(=O)OC7)CC[C@]65O)C4)O[C@@H]3C)O[C@@H]2C)C[C@H](O)[C@@H]1O [3H-Digoxin, Digoxin, reference compound] |  |  |  |  | efflux ratio at 120 min, 30 nM (P-gp (MDR1); LLC-PK1, pH 7.4, Efflux ratio BA/AB, LLC-MDR1, no inhibitor): 22.6; Papp A→B at 120 min, 30 nM (P-gp (MDR1); [8]): 0.45 ± 0.08 ×10⁻⁶ cm/s; Papp B→A at 120 min, 30 nM (P-gp (MDR1); [9]): 10.3 ± 0.2 ×10⁻⁶ cm/s; efflux ratio at 120 min, 30 nM (P-gp (MDR1); LLC-PK1, pH 7.4, with elacridar (GF120918) 5 µM, Efflux ratio BA/AB, LLC-MDR1, + 5 µM GF120918): 0.91; Papp A→B at 120 min, 30 nM (P-gp (MDR1); LLC-PK1, pH 7.4, with elacridar (GF120918) 5 µM, Papp AB, + 5 µM GF120918): 2.98 ± 0.15 ×10⁻⁶ cm/s; Papp B→A at 120 min, 30 nM (P-gp (MDR1); LLC-PK1, pH 7.4, with elacridar (GF120918) 5 µM, Papp BA, + 5 µM GF120918): 2.72 ± 0.05 ×10⁻⁶ cm/s; Papp A→B at 120 min, 30 nM ([1]; pig, LLC-PK1, pH 7.4): 2.45 ± 0.1 ×10⁻⁶ cm/s; efflux ratio at 120 min, 30 nM ([1]; pig, LLC-PK1, pH 7.4, Efflux ratio BA/AB, no inhibitor): 0.94; Papp B→A at 120 min, 30 nM [1, 10]: 2.31 ± 0.15 ×10⁻⁶ cm/s; efflux ratio at 120 min, 30 nM ([1]; pig, LLC-PK1, pH 7.4, with elacridar (GF120918) 5 µM, Efflux ratio BA/AB, + 5 µM GF120918): 0.9; Papp B→A at 120 min, 30 nM ([1]; pig, LLC-PK1, pH 7.4, with elacridar (GF120918) 5 µM, Papp BA, + 5 µM GF120918): 2.37 ± 0.08 ×10⁻⁶ cm/s
2 | CSCC[C@@H]1NC(=O)CNC(=O)CNC(=O)[C@H](C)NC(=O)[C@H](C(C)C)NC(=O)CNC(=O)[C@H](CC(C)C)NC(=O)[C@@H]2CCCN2C(=O)[C@H](CC(=O)O)NC(=O)[C@H](CCC(=O)O)NC(=O)[C@H](Cc2ccc(O)cc2)NC(=O)[C@H](CC(C)C)NC(=O)[C@H](CO)NC(=O)[C@@H]2CCCN2C(=O)[C@H]2CCCN2C(=O)[C@H](C(C)C)NC(=O)CNC1=O [CP2] | 5.13 | 12.7 ± 1.64 | 55.1 | 21.9 ± 3.24 | 
3 | CSCC[C@@H]1NC(=O)CNC(=O)CNC(=O)[C@H](C)NC(=O)[C@H](C(C)C)NC(=O)CNC(=O)[C@H](CC(C)C)NC(=O)[C@@H]2CCCN2C(=O)[C@H](CC(=O)O)NC(=O)[C@H](CCC(=O)O)NC(=O)[C@H](Cc2ccc(O)cc2)NC(=O)[C@H](CC(C)C)NC(=O)[C@H]2CCCN2C(=O)[C@@H]2CCCN2C(=O)CNC1=O [CP3] | 1.71 ± 0.19 | 2.01 ± 0.54 | 27.1 ± 2.79 | 2.78 ± 0.26 | 
4 | CSCC[C@@H]1NC(=O)CNC(=O)CNC(=O)[C@H](C)NC(=O)[C@H](C(C)C)NC(=O)CNC(=O)[C@H](CC(C)C)NC(=O)[C@@H]2CCCN2C(=O)[C@H](CC(=O)O)NC(=O)[C@H](CCC(=O)O)NC(=O)[C@H](Cc2ccc(O)cc2)NC(=O)[C@H](CC(C)C)NC(=O)[C@H](CO)NC(=O)CNC(=O)[C@H]2CCCN2C(=O)[C@H](C(C)C)NC(=O)CNC1=O [CP5] | 4.63 |  |  | 17 ± 4.58 | 
5 | CSCC[C@@H]1NC(=O)CNC(=O)CNC(=O)[C@H](C)NC(=O)[C@H](C(C)C)NC(=O)CNC(=O)[C@H](CC(C)C)NC(=O)[C@@H]2CCCN2C(=O)[C@H](CC(=O)O)NC(=O)[C@H](CCC(=O)O)NC(=O)[C@H](Cc2ccc(O)cc2)NC(=O)[C@H](CC(C)C)NC(=O)[C@H]2CCCN2C(=O)CNC(=O)CNC1=O [CP6] | 1.09 ± 0.2 | 1.47 ± 0.32 | 13.5 ± 2.17 | 2.74 ± 0.9 | 
6 | CC[C@H]1NC(=O)[C@H](C(C)C)NC(=O)CNC(=O)C(CCCc2ccccc2)NC(=O)[C@@H]2CCCN2C(=O)[C@H](CC(=O)O)NC(=O)[C@H](CCC(=O)O)NC(=O)[C@H](Cc2ccc(O)cc2)NC(=O)[C@H](CC(C)C)NC(=O)[C@H]2CCCN2C(=O)CNC(=O)CNC(=O)[C@H](CCSC)NC(=O)CNC(=O)CNC1=O (stereo partly drawn) [CP7] (cyclo([dP]LYEDP[ξhhPhe]GV[dAbu]GGMGG)) | 0.36 ± 0.01 | 0.22 ± 0.01 | 14.8 ± 0.57 | 3.54 ± 0.31 | 
7 | CSCC[C@@H]1NC(=O)CNC(=O)CNC(=O)[C@H](C)NC(=O)[C@H](C(C)C)NC(=O)CNC(=O)[C@H](CC(C)C)NC(=O)[C@@H]2CCCN2C(=O)[C@H](CC(=O)O)NC(=O)[C@H](CCCNC(=N)N)NC(=O)[C@H](Cc2ccc(O)cc2)NC(=O)[C@H](CC(C)C)NC(=O)[C@@H](NC(=O)CCC(=O)O)CSSC[C@@H](C(N)=O)NC(=O)CNC1=O [CP8] | 0.11 | 0.16 ± 0.02 | 1.55 ± 0.29 | 0.54 ± 0.01 | Kd [6]: 0.32 to 0.33 µM; IC50 [7]: 0.11 to 1.55 µM
8 | CSCC[C@@H]1NC(=O)CNC(=O)CNC(=O)[C@H](C)NC(=O)[C@H](C(C)C)NC(=O)CNC(=O)[C@H](CC(C)C)NC(=O)[C@@H]2CCCN2C(=O)[C@H](CC(=O)O)NC(=O)[C@H](CCC(=O)O)NC(=O)[C@H](Cc2ccc(O)cc2)NC(=O)[C@H](CC(C)C)NC(=O)[C@@H](NC(=O)CCC(=O)O)CSSC[C@@H](C(N)=O)NC(=O)CNC1=O [CP9] | 0.3 ± 0.03 | 0.7 ± 0.02 | 5.59 ± 0.21 | 0.23 ± 0.02 | 
9 | CSCC[C@@H]1NC(=O)[C@H](CCC(=O)O)NC(=O)CNC(=O)[C@H](C)NC(=O)[C@H](C(C)C)NC(=O)CNC(=O)[C@H](CC(C)C)NC(=O)[C@@H]2CCCN2C(=O)[C@H](CC(=O)O)NC(=O)[C@H](CCCNC(=N)N)NC(=O)[C@H](Cc2ccc(O)cc2)NC(=O)[C@H](CC(C)C)NC(=O)[C@@H](NC(=O)CCC(=O)O)CSSC[C@@H](C(N)=O)NC(=O)CNC1=O [CP10] (Suc-CLYRDPLGVAGEMGC-NH2; disulfide 1-15) | 0.61 ± 0.08 | 2.93 ± 0.32 | 7.61 ± 1.56 | 0.46 ± 0.04 | 
10 | CSCC[C@@H]1NC(=O)CNC(=O)CNC(=O)[C@H](C)NC(=O)[C@H](C(C)C)NC(=O)CNC(=O)[C@H](CC(C)C)NC(=O)[C@@H]2CCCN2C(=O)[C@H](CC(=O)O)NC(=O)[C@H](CCCNC(=N)N)NC(=O)[C@H](Cc2ccc(O)cc2)NC(=O)[C@@H](NC(=O)CCC(=O)O)CSSC[C@@H](C(N)=O)NC1=O [CP11] | 4.1 ± 0.76 | 4.99 ± 0.6 | 7.78 ± 2.63 | 8.52 ± 0.39 | 
11 | CSCC[C@@H]1NC(=O)CNC(=O)CNC(=O)[C@H](C)NC(=O)[C@H](C(C)C)NC(=O)CNC(=O)[C@H](CC(C)C)NC(=O)[C@@H]2CCCN2C(=O)[C@H](CC(=O)O)NC(=O)[C@H](CCC(=O)O)NC(=O)[C@H](Cc2ccc(O)cc2)NC(=O)[C@@H](NC(=O)CCC(=O)O)CSSC[C@@H](C(N)=O)NC1=O [CP12] | 6.38 ± 0.17 | 4.95 ± 0.38 | 28.8 ± 10.2 |  | 
12 | CSCC[C@@H]1NC(=O)[C@H](CCC(=O)O)NC(=O)CNC(=O)[C@H](C)NC(=O)[C@H](C(C)C)NC(=O)CNC(=O)[C@H](CC(C)C)NC(=O)[C@@H]2CCCN2C(=O)[C@H](CC(=O)O)NC(=O)[C@H](CCCNC(=N)N)NC(=O)[C@H](Cc2ccc(O)cc2)NC(=O)[C@@H](NC(=O)CCC(=O)O)CSSC[C@@H](C(N)=O)NC1=O [CP13] | 11.8 ± 2.61 | 12.79 ± 0.09 | 39.8 ± 12.2 | 39.4 ± 8.32 | 
13 | CSCC[C@@H]1NC(=O)CNC(=O)CNC(=O)[C@H](C)NC(=O)[C@H](C(C)C)NC(=O)CNC(=O)[C@H](CC(C)C)NC(=O)[C@@H]2CCCN2C(=O)[C@H](CC(=O)O)NC(=O)[C@H](CCC(=O)O)NC(=O)[C@H](Cc2ccc(O)cc2)NC(=O)[C@H](CC(C)C)NC(=O)CNC1=O [CP14] | 1.72 ± 0.24 | 1.24 ± 0.15 | 10 ± 0.91 | 1.24 ± 0.03 | Papp A→B at 120 min, 5 µM (P-gp (MDR1); [8]): 0.26 ± 0.04 ×10⁻⁶ cm/s; Papp B→A at 120 min, 5 µM (P-gp (MDR1); [9]): 0.32 ± 0.05 ×10⁻⁶ cm/s; Papp A→B at 120 min, 5 µM (P-gp (MDR1); LLC-PK1, pH 7.4, with 5 µM GF120918 (elacridar), Papp AB, + 5 µM GF120918): 0.25 ± 0.01 ×10⁻⁶ cm/s; Papp B→A at 120 min, 5 µM (P-gp (MDR1); LLC-PK1, pH 7.4, with 5 µM GF120918 (elacridar), Papp BA, + 5 µM GF120918): 0.33 ± 0.05 ×10⁻⁶ cm/s; recovery ([1]; LLC-PK1): 96.5%; Papp A→B at 120 min, 5 µM ([1]; pig, LLC-PK1, pH 7.4): 0.11 ×10⁻⁶ cm/s; Papp B→A at 120 min, 5 µM [1, 10]: 0.12 ± 0.01 ×10⁻⁶ cm/s; Papp B→A at 120 min, 5 µM ([1]; pig, LLC-PK1, pH 7.4, with 5 µM GF120918 (elacridar), Papp BA, + 5 µM GF120918): 0.11 ± 0.01 ×10⁻⁶ cm/s
